Laboratory results published in patent publication US20020165236A1, “Compounds for the treatment of protozoal diseases” (priority 2001, published 2002).

How the values were obtained:
[1] = tested on: multiresistant Dd2 strain of Plasmodium falciparum; assay: antiplasmodial action, [8-3H]hypoxanthine incorporation, Dd2 strain; assay type: cell-based; conditions: read-out: in vitro antiplasmodial activity (IC50 value class)
Description: For the determination of the antiplasmodial action of the compounds, the multiresistant Dd2 strain of Plasmodium falciparum was used. The incorporation of [8-^3H]hypoxanthine into the parasitic nucleic acids was measured. The plasmodia were incubated at 0.3% parasitaemia and an erythrocyte haematocrit of 2.5% in the presence of different concentrations of the compounds in a final volume of 200-μl. The medium employed was RPMI 1640 which contained 10% of heat-treated human serum and 3 mg/l of gentamycin. in the incubations, the concentrations of the compounds varied from 0.3 to 100 μM. After 48 h, each batch was treated with 50 µl of […] (1 mCi/ml) and incubated for a further 18 h. The cells were filtered off, washed and suspended in 20 μl of scintillation fluid. The radioactive hypoxanthine absorbed by the parasites was then quantified using a scintillation counter.
The results were presented graphically and the IC50 value was determined using a fitting function. The value IC50, the ‘inhibition constant’, indicates the value in μMol/1 at which 50% inhibition occurs.

[2] = tested on: 3D7 chloroquine sensitive strain of Plasmodium falciparum; assay: antiplasmodial activity against 3D7 strain; assay type: cell-based; conditions: read-out: in vitro antiplasmodial activity (IC50 value class)
Description: Antiplasmodial activity against the 3D7 chloroquine sensitive strain of Plasmodium falciparumwas determined as described elsewhere (J. Med. Chem. (2001) 44(19), 3187-3194).

Row | IC50 [1] | IC50 [2] | SMILES
1 | 10 to 100 µM | 1 to 10 µM | N=C(N)c1cccc(NC(=O)Nc2cccc([N+](=O)[O-])c2)c1 [Compound 5]
2 | 1 to 10 µM | 1 to 10 µM | N=C(N)c1cccc(NC(=O)Nc2cccc(C(F)(F)F)c2)c1 [Compound 10]
3 | 1 to 10 µM | 1 to 10 µM | N=C(N)c1cccc(NC(=O)Nc2cc(C(F)(F)F)cc(C(F)(F)F)c2)c1 [Compound 13]
4 | 1 to 10 µM | 1 to 10 µM | N=C(N)c1ccc(NC(=O)Nc2cc(C(F)(F)F)cc(C(F)(F)F)c2)cc1 [Compound 15]
5 | < 1 µM | < 1 µM | N=C(N)c1cccc(NC(=O)Nc2ccc3c(c2)S(=O)(=O)C=C3)c1 [Compound 18]
6 | 10 to 100 µM | 10 to 100 µM | N=C(N)c1cccc(NC(=O)Nc2cccc(S(N)(=O)=O)c2)c1 [Compound 24]
7 | < 1 µM | 1 to 10 µM | N=C(N)c1cccc(NC(=O)Nc2ccc(S(=O)(=O)NCc3ccc(OC(F)(F)F)cc3)cc2)c1 [Compound 34]
8 | 1 to 10 µM | 1 to 10 µM | N=C(N)c1cccc(NC(=O)Nc2ccc(S(=O)(=O)c3ccccc3)cc2)c1 [Compound 61]
9 | 1 to 10 µM | 1 to 10 µM | N=C(N)c1cccc(NC(=O)Nc2cccc(S(=O)(=O)c3ccccc3)c2)c1 [Compound 62]
10 | < 1 µM | 1 to 10 µM | N=C(N)c1ccc(NC(=O)Nc2ccc(S(=O)(=O)c3ccccc3)cc2)cc1 [Compound 64]
11 | 1 to 10 µM | 1 to 10 µM | Cc1ccc(C(=O)Nc2ccc(NC(=O)Nc3cccc(C(=N)N)c3)cc2O)cc1 [Compound 67]
12 | 1 to 10 µM |  | N=C(NCC1CCCO1)c1cccc(NC(=O)Nc2ccc(S(=O)(=O)c3ccc([N+](=O)[O-])cc3)cc2)c1 (centres unmarked) [Compound 84]
13 | < 1 µM |  | N=C(NO)c1cccc(NC(=O)Nc2ccc(S(=O)(=O)c3ccc([N+](=O)[O-])cc3)cc2)c1 [Compound 85]
14 | 1 to 10 µM |  | COC(=O)c1cc(NC(=O)Nc2cccc(C(=N)Nc3cccnc3)c2)cc(C(F)(F)F)c1 [Compound 86]
15 | 1 to 10 µM |  | COC(=O)c1cc(NC(=O)Nc2cccc(C(=N)NCCN(C)C)c2)cc(C(F)(F)F)c1 [Compound 87]
16 | 1 to 10 µM |  | COC(=O)c1cc(NC(=O)Nc2cccc(C(=N)NCCN3CCCC3)c2)cc(C(F)(F)F)c1 [Compound 88]
17 | 1 to 10 µM |  | N=C(Nc1cccnc1)c1cccc(NC(=O)Nc2ccc(S(=O)(=O)NCc3ccc(S(N)(=O)=O)cc3)cc2)c1 [Compound 89]
18 | < 1 µM |  | N=C(NCCN1CCOCC1)c1cccc(NC(=O)Nc2ccc(S(=O)(=O)NCc3ccc(S(N)(=O)=O)cc3)cc2)c1 [Compound 90]
19 | < 1 µM |  | O=C(Nc1cccc(C2=NCCN2)c1)Nc1cccc(C(F)(F)F)c1 [Compound 91]
20 | 1 to 10 µM |  | N=C(NCCN1CCOCC1)c1cccc(NC(=O)Nc2cccc(C(F)(F)F)c2)c1 [Compound 93]
21 | 1 to 10 µM |  | N=C(NO)c1cccc(NC(=O)Nc2ccc(S(=O)(=O)NCc3ccc(S(N)(=O)=O)cc3)cc2)c1 [Compound 96]
22 | 1 to 10 µM |  | N=C(Nc1ccc(-c2ccccc2)cc1)c1cccc(NC(=O)Nc2cccc(C(F)(F)F)c2)c1 [Compound 100]
23 | 1 to 10 µM |  | N=C(N)c1cccc(NC(=O)C(=O)Nc2ccc(S(=O)(=O)NCc3ccccc3)cc2)c1 [Compound 101, N-(4-benzylsulfamoylphenyl)-N′-(3-carbamimidoyl-phenyl)-oxalamide]
24 | 10 to 100 µM |  | N=C(N)c1cccc(NC(=O)C(=O)Nc2cccc(S(=O)(=O)NCc3ccccc3)c2)c1 [Compound 102, N-(3-benzylsulfamoylphenyl)-N′-(3-carbamimidoyl-phenyl)-oxalamide]
